Data: article PMC3878827, “Synthesis and biological characterisation of ^18F-SIG343 and ^18F-SIG353, novel and high selectivity σ2 radiotracers, for tumour imaging properties” (EJNMMI Research, 2013)

Tests used:
[1] = PET/CT imaging studies in A375 tumour-bearing mice; assay type: in vivo; details: 120-min PET scan
Experimental: The mouse was anaesthetised via inhalant isoflurane (Forthane, Abbott Laboratories, IL, USA) (5% induction, 1% to 3% maintenance in 200 mL/min oxygen). Respiration and heart rates of the animal were monitored (BioVet; m2m Imaging Corp, Cleveland, OH, USA) during the entire scanning period. The core body temperature of the animals was maintained via a temperature-controlled heating pad. The mouse was injected intravenously with 4.6 to 16.7 MBq of ^18F-SIG343 or ^18F-SIG353, with a constant mass of the unlabelled compounds of 0.06 nmol in 100 μL of saline (n = 3). A 120-min PET scan was performed on an Inveon multimodality positron emission tomography-computed tomography (PET/CT) system (Siemens Medical Solutions, Knoxville, TN, USA) followed by a 10-min CT scan on each subject for anatomical information. Image acquisition commenced simultaneously with radiotracer injection. The data was histogrammed into 25 consecutive frames, and activity volumes were reconstructed with an iterative reconstruction (OSEM/MAP) including attenuation and scatter correction, achieving a reconstructed spatial resolution of 1.5 mm. […] Regional activity data (Bq/cc) were extracted from nine selected volumes/regions of interest (VOIs/ROIs) where σ receptor distribution was reported and the tail and expressed as percentage of injected dose per cubic centimetres (%ID/cc).

[2] = Biodistribution studies in A375 tumour-bearing mice; assay type: in vivo, Balb/C nude mice; details: for Biodistribution, Blood / Biodistribution, Brain / Biodistribution, Femur / Biodistribution, Heart / Biodistribution, Kidneys / Biodistribution, Liver / Biodistribution, Lungs / Biodistribution, Ovaries / Biodistribution, Pancreas / Biodistribution, Spleen / Biodistribution, Tumour: i.v., ± SEM, n = 5
Experimental: Female Balb/C nude mice aged 5 to 6 weeks old were obtained from the Animal Resource Centre (Perth, Australia). The animals were kept at a constant temperature of 22°C ± 2°C on a 12/12 h light/dark cycle with lights on at 09:00 am. Food and water were freely available. After a week of acclimatisation, mice were injected subcutaneously in the left flank with 1 × 10^6 A375 human amelanotic melanoma cells, in 100 μL of Ca^2+/Mg^2+-free phosphate buffered saline. The procedure was performed without anaesthetic. For in vivo studies, A375 tumour-bearing mice were used 26 days after tumour inoculation.
Tumour-bearing mice were used to examine the tissue distribution of radioactivity after intravenous injection into the tail vein of 1 MBq of ^18F-SIG343 or ^18F-SIG353 in 100 μL of saline. At 15, 30, 60, and 120 min post injection of the radiotracer, groups of mice (n = 5) were sacrificed by CO2 administration followed by cervical […] and dissection. Selected organs were weighed, and the radioactivity was measured using a γ-counter. The percentage of injected dose (%ID) was calculated by comparison with suitable dilutions of the injected dose. Radioactivity concentrations were expressed as percentage of injected dose per gram of wet tissue (%ID/g), assuming a uniform density of 1 g/cm^3. Data were corrected for the radioactivity decay and tail injected dose and normalised for the standard mouse body weight (20 g). The remaining activity in the carcass was also determined in order to obtain the total activity in the mouse (background activity) at each time point.
Selected tumour-to-organ (tumour-to-blood and tumour-to-muscle) uptake ratios (TORs), were calculated by dividing the tumour radioactivity concentration (%ID/g) by the radioactivity concentration in the respective organ at time t. Comparisons of organ radioactivity concentrations (%ID/g) and TORs in the biodistribution studies or %ID/cc in PET imaging studies between the two radiotracers were performed using separate unpaired, two-tailed Student's t tests, matched organs and time points.

[3] = system: A375 (human amelanotic melanoma) cells; assay: Cell uptake inhibition studies in A375 cells with competing σ ligands; assay type: cell-based; details: 15 min
Experimental: A375 (human amelanotic melanoma) cells were purchased from American Type Culture Collection (Manassas, VA, USA) and cultured in RPMI-1640 medium (Sigma-Aldrich, St. Louis, MO, USA) supplemented with 10% foetal calf serum (Invitrogen, CA, USA) and 2 mM L-glutamine (Sigma). Cells were maintained in 175 cm^2 flasks in at 37°C in 5% CO2:95% atmosphere humidified incubator and grown to sub-confluent monolayers before being detached using trypsin for use in animal models.
Cells were prepared as described for uptake studies. Prior to the addition of the radiotracer, 400 μL of blocking drug (6.25 μmol/L in PBS) or PBS (for controls) was added to the wells. Freshly prepared radiotracer (0.37 MBq in 100 μL) was added, and the cells were incubated at 37°C for 15 min as the optimal time previously determined by the cell uptake studies. Uptake was terminated as described for uptake studies. The percentage of uptake in the treatment groups relative to the control group was determined.

COc1cc2c(cc1OC)CN(CCCCN1C(=O)c3ccc([18F])cc3C1=O)CC2 [^18F-SIG343]
Tumour uptake by PET imaging [1]: 0.9 %ID/cc
Biodistribution, Blood ([2]; 15 min post injection): 0.9 ± 0.1 %ID/g
Biodistribution, Brain ([2]; 15 min post injection): 9.6 ± 0.2^ *** %ID/g
Biodistribution, Femur ([2]; 15 min post injection): 4.5 ± 0.4 %ID/g
Biodistribution, Heart ([2]; 15 min post injection): 5.5 ± 0.4 %ID/g
Biodistribution, Kidneys ([2]; 15 min post injection): 26.1 ± 0.6 %ID/g
Biodistribution, Liver ([2]; 15 min post injection): 16.0 ± 0.9^ ** %ID/g
Biodistribution, Lungs ([2]; 15 min post injection): 30.3 ± 1.2^ *** %ID/g
Biodistribution, Ovaries ([2]; 15 min post injection): 10.8 ± 1.8 %ID/g
Biodistribution, Pancreas ([2]; 15 min post injection): 42.9 ± 2.8^ * %ID/g
Biodistribution, Spleen ([2]; 15 min post injection): 14.6 ± 1.2 %ID/g
Biodistribution, Tumour ([2]; 15 min post injection): 3.1 ± 0.5 %ID/g
Biodistribution, Blood ([2]; 30 min post injection): 0.7 ± 0.04 %ID/g
Biodistribution, Brain ([2]; 30 min post injection): 8.8 ± 0.6^ *** %ID/g
Biodistribution, Femur ([2]; 30 min post injection): 4.3 ± 0.2 %ID/g
Biodistribution, Heart ([2]; 30 min post injection): 3.5 ± 0.2^ ** %ID/g
Biodistribution, Kidneys ([2]; 30 min post injection): 19.8 ± 0.9^ *** %ID/g
Biodistribution, Liver ([2]; 30 min post injection): 21.9 ± 0.8^ *** %ID/g
Biodistribution, Lungs ([2]; 30 min post injection): 17.4 ± 0.7^ *** %ID/g
Biodistribution, Ovaries ([2]; 30 min post injection): 14.0 ± 2.2 %ID/g
Biodistribution, Pancreas ([2]; 30 min post injection): 50.2 ± 2.0^ *** %ID/g
Biodistribution, Spleen ([2]; 30 min post injection): 15.2 ± 1.1^ * %ID/g
Biodistribution, Tumour ([2]; 30 min post injection): 3.0 ± 0.1^ * %ID/g
Biodistribution, Blood ([2]; 60 min post injection): 0.6 ± 0.1 %ID/g
Biodistribution, Brain ([2]; 60 min post injection): 7.1 ± 0.4^ *** %ID/g
Biodistribution, Femur ([2]; 60 min post injection): 3.8 ± 0.1 %ID/g
Biodistribution, Heart ([2]; 60 min post injection): 1.9 ± 0.04^ ** %ID/g
Biodistribution, Kidneys ([2]; 60 min post injection): 12.0 ± 0.6^ ** %ID/g
Biodistribution, Liver ([2]; 60 min post injection): 15.2 ± 1.1^ *** %ID/g
Biodistribution, Lungs ([2]; 60 min post injection): 9.9 ± 0.3^ *** %ID/g
Biodistribution, Ovaries ([2]; 60 min post injection): 13.5 ± 2.2 %ID/g
Biodistribution, Pancreas ([2]; 60 min post injection): 64.4 ± 3.5^ *** %ID/g
Biodistribution, Spleen ([2]; 60 min post injection): 12.8 ± 0.9^ *** %ID/g
Biodistribution, Tumour ([2]; 60 min post injection): 3.5 ± 0.3^ * %ID/g
Biodistribution, Blood ([2]; 120 min post injection): 0.4 ± 0.01 %ID/g
Biodistribution, Brain ([2]; 120 min post injection): 5.2 ± 0.7^ *** %ID/g
Biodistribution, Femur ([2]; 120 min post injection): 3.2 ± 0.1 %ID/g
Biodistribution, Heart ([2]; 120 min post injection): 1.1 ± 0.1 %ID/g
Biodistribution, Kidneys ([2]; 120 min post injection): 7.5 ± 0.4 %ID/g
Biodistribution, Liver ([2]; 120 min post injection): 19.8 ± 0.9^ * %ID/g
Biodistribution, Lungs ([2]; 120 min post injection): 5.0 ± 0.3 %ID/g
Biodistribution, Ovaries ([2]; 120 min post injection): 11.5 ± 1.4 %ID/g
Biodistribution, Pancreas ([2]; 120 min post injection): 61.7 ± 3.4^ *** %ID/g
Biodistribution, Spleen ([2]; 120 min post injection): 8.5 ± 0.2^ *** %ID/g
Biodistribution, Tumour ([2]; 120 min post injection): 3.9 ± 0.2 %ID/g
Tumour-to-blood uptake ratio ([2]; at 120 min): eight- to ninefold
Tumour-to-muscle uptake ratio ([2]; at 120 min): 4
Change of cell uptake of radiotracer versus control ([3]; competitor (+)-pentazocine 5 μM): no significant blocking effect
Change of cell uptake of radiotracer versus control ([3]; competitor haloperidol 5 μM): -72%
Change of cell uptake of radiotracer versus control ([3]; competitor unlabelled SIG343 5 μM): -69%

COc1cc2c(cc1OC)CN(CCCCCN1C(=O)c3ccc([18F])cc3C1=O)CC2 [^18F-SIG353]
Tumour uptake by PET imaging [1]: 1.3 %ID/cc
Biodistribution, Blood ([2]; 15 min post injection): 1.2 ± 0.03 %ID/g
Biodistribution, Brain ([2]; 15 min post injection): 4.4 ± 0.2 %ID/g
Biodistribution, Femur ([2]; 15 min post injection): 5.3 ± 0.3 %ID/g
Biodistribution, Heart ([2]; 15 min post injection): 4.5 ± 0.2 %ID/g
Biodistribution, Kidneys ([2]; 15 min post injection): 23.4 ± 2.0 %ID/g
Biodistribution, Liver ([2]; 15 min post injection): 23.5 ± 2.0 %ID/g
Biodistribution, Lungs ([2]; 15 min post injection): 17.4 ± 0.5 %ID/g
Biodistribution, Ovaries ([2]; 15 min post injection): 10.0 ± 0.9 %ID/g
Biodistribution, Pancreas ([2]; 15 min post injection): 56.4 ± 4.7 %ID/g
Biodistribution, Spleen ([2]; 15 min post injection): 15.7 ± 1.1 %ID/g
Biodistribution, Tumour ([2]; 15 min post injection): 3.8 ± 0.3 %ID/g
Biodistribution, Blood ([2]; 30 min post injection): 1.0 ± 0.1 %ID/g
Biodistribution, Brain ([2]; 30 min post injection): 2.3 ± 0.1 %ID/g
Biodistribution, Femur ([2]; 30 min post injection): 4.7 ± 0.2 %ID/g
Biodistribution, Heart ([2]; 30 min post injection): 2.5 ± 0.1 %ID/g
Biodistribution, Kidneys ([2]; 30 min post injection): 13.3 ± 0.8 %ID/g
Biodistribution, Liver ([2]; 30 min post injection): 33.0 ± 1.8 %ID/g
Biodistribution, Lungs ([2]; 30 min post injection): 8.6 ± 0.4 %ID/g
Biodistribution, Ovaries ([2]; 30 min post injection): 11.8 ± 1.5 %ID/g
Biodistribution, Pancreas ([2]; 30 min post injection): 72.8 ± 2.4 %ID/g
Biodistribution, Spleen ([2]; 30 min post injection): 12.0 ± 0.6 %ID/g
Biodistribution, Tumour ([2]; 30 min post injection): 3.8 ± 0.3 %ID/g
Biodistribution, Blood ([2]; 60 min post injection): 0.7 ± 0.02 %ID/g
Biodistribution, Brain ([2]; 60 min post injection): 1.3 ± 0.01 %ID/g
Biodistribution, Femur ([2]; 60 min post injection): 3.8 ± 0.2 %ID/g
Biodistribution, Heart ([2]; 60 min post injection): 1.7 ± 0.02 %ID/g
Biodistribution, Kidneys ([2]; 60 min post injection): 8.7 ± 0.3 %ID/g
Biodistribution, Liver ([2]; 60 min post injection): 32.6 ± 1.0 %ID/g
Biodistribution, Lungs ([2]; 60 min post injection): 6.1 ± 0.1 %ID/g
Biodistribution, Ovaries ([2]; 60 min post injection): 9.6 ± 1.5 %ID/g
Biodistribution, Pancreas ([2]; 60 min post injection): 94.3 ± 4.2 %ID/g
Biodistribution, Spleen ([2]; 60 min post injection): 7.7 ± 0.4 %ID/g
Biodistribution, Tumour ([2]; 60 min post injection): 4.6 ± 0.2 %ID/g
Biodistribution, Blood ([2]; 120 min post injection): 0.7 ± 0.03 %ID/g
Biodistribution, Brain ([2]; 120 min post injection): 0.8 ± 0.02 %ID/g
Biodistribution, Femur ([2]; 120 min post injection): 3.9 ± 0.1 %ID/g
Biodistribution, Heart ([2]; 120 min post injection): 1.3 ± 0.1 %ID/g
Biodistribution, Kidneys ([2]; 120 min post injection): 7.1 ± 0.2 %ID/g
Biodistribution, Liver ([2]; 120 min post injection): 24.1 ± 1.4 %ID/g
Biodistribution, Lungs ([2]; 120 min post injection): 4.7 ± 0.2 %ID/g
Biodistribution, Ovaries ([2]; 120 min post injection): 12.2 ± 3.1 %ID/g
Biodistribution, Pancreas ([2]; 120 min post injection): 119.2 ± 1.6 %ID/g
Biodistribution, Spleen ([2]; 120 min post injection): 5.5 ± 0.2 %ID/g
Biodistribution, Tumour ([2]; 120 min post injection): 4.8 ± 0.4 %ID/g
Tumour-to-blood uptake ratio ([2]; at 120 min): eight- to ninefold
Change of cell uptake of radiotracer versus control ([3]; any of the competing σ ligands ((+)-pentazocine, haloperidol, unlabelled SIG353) 5 μM): not significantly reduced
